Laboratory results as given in paper PMC9098913, “In vitro reconstitution of Escherichia coli divisome activation” (Nature Communications, 2022).

Tests used:
[1] = Nucleotide effect on membrane binding of FtsA WT (normalized intensity); details: Fig. S3m
[2] = Membrane binding of FtsA by QCM-D; details: for amount of membrane-bound protein saturated at / Kd: QCM-D; for Kd: Hill fit, 5th harmonic, DOPC:DOPG 67:33 mol%, pH 7.4, 150 mM KCl, 5 mM MgCl2, 2 mM ATP, 2 mM GTP, 25 °C, n = 2, upper estimate
Procedure: To quantify the intrinsic membrane-affinity of the two versions of FtsA, we used Quartz Crystal Microbalance with Dissipation (QCM-D) and measured the hydrated mass of adsorbed protein on a membrane surface.
QCM-D experiments were performed with the QSense Analyzer from Biolin Scientific, equipped with silica-coated sensor (QSX 303). The sensors were cleaned for 10 s in a Zepto plasma cleaner, mounted in the QCM-D chambers and the acquisition of the experiment was first performed in the reaction buffer (50 mM Tris-HCl [pH 7.4], 150 mM KCl and 5 mM MgCl2). The supported lipid membrane was formed by rupturing 0.5 mM small unilamellar vesicles (SUVs) in the presence of MgCl2. The lipids used were 1,2-dioleoyl-sn-glycero-3-phosphocholine (DOPC) and 1,2-dioleoyl-sn-glycero-3-phospho-(1′-rac-glycerol) (DOPG) at a ratio of 67:33 mol%. After bilayer formations, the reaction buffer supplemented with 2 mM ATP, 2 mM GTP and 1 mM DTT was injected and the signal was recorded until a stable equilibrium was reached. Subsequently, increasing concentrations of FtsA were injected in the QCM-D chamber and changes in frequency and dissipation were monitored in real-time. The flow rate used in all experiments was 25 µl min^−1, and the temperature was set to 25 °C. To estimate the membrane-binding affinity, we extracted the frequency changes of the 5th acoustic harmonic for different FtsA concentrations and fitted a Hill equation y=S+(E−S)⋅(x^n/k^n+x^n) , where S is the starting point, E the end point, n is the Hill coefficient and k the dissociation constant. The measured binding affinity is an upper estimate, because QCM-D accounts not only on the dry molecular mass, but also on the hydration shell of the molecular assembly.

FtsA self-interaction = experiment: Cuvette FRET of FtsA in solution and with lipid vesicles (SUVs); type: binding, E. coli; details: for FRET efficiency: Fig. S3c, in cuvette
Procedure: For in solution FRET experiments, increasing concentrations of Cy3-FtsA and Cy5-FtsA in a 50:50 ratio were mixed in 100 µl reaction buffer (50 mM Tris-HCl [pH7.4], 150 mM KCl and 5 mM MgCl2) inside a quartz cuvette (Hellma® fluorescence cuvettes, ultra Micro). The spectrums were measured using a Spectrophotometer Spectramax M2e Plate- + Cuvette Reader (Molecular Devices). Cy3-FtsA was excited at a wavelength of 520 nm and the resulting emission spectrum was recorded from 550–700 nm in 1 nm steps. To avoid crosstalk of the excitation light, a cutoff filter was set to 550 nm. Addition of ATP or small unilamellar vesicles (SUVs) was measured individually for each concentration. Buffer controls containing the corresponding reagents and only Cy5-FtsA were measured and used as background corrections for measurements with Cy3- and Cy5-FtsA. Background corrected spectra were used to estimate FRET efficiency by E(%)=Fa/Fd+Fa⋅100 , where Fa is the peak of acceptor (=Cy5) emission at 670 nm and Fd the peak of the emission of the donor (=Cy3) spectrum at 565 nm.

FtsZ filaments = experiment: FtsZ turnover / lifetime / off-rate, single-molecule tracking; type: biochemical, E. coli
Procedure: Single-molecule experiments were performed as described previously. In short, individual FtsZ proteins were imaged at single-molecule level by adding small amounts of Cy5-labelled FtsZ (200 pM) to a chamber with 0.2 or 0.4 µM FtsA and 1.25 μM Alexa488-FtsZ.
Single molecules of FtsA or FtsZ were tracked using the TrackMate plugin from ImageJ[43]. To obtain the residence time of FtsZ and FtsA, we performed a residence time analysis as described before[40],[47]. Shortly, single molecules were imaged at different acquisition rates (0.1–2 s) and the lifetime of the molecules was extracted from each data set. To account for photobleaching effect, the obtained lifetimes were plotted against the acquisition rate. […] Furthermore, we extracted the diffusion coefficient of FtsA single molecules at increasing concentrations. For this, we filtered the obtained data, by considering only trajectories which are present on the membrane for more than 0.4 s. […] Subsequently, the diffusion coefficient of FtsA molecules was estimated by fitting an MSD curve to each individual trajectory.

Molecule: FtsA WT: wild-type E. coli actin-homologue FtsA, membrane anchor of FtsZ
- Normalized intensity ([1]; AMP PNP, 0.10 µM FtsA, replicate 1): 0.07 a.u.
- Normalized intensity ([1]; AMP PNP, 0.10 µM FtsA, replicate 2): 0.13 a.u.
- Normalized intensity ([1]; AMPPNP, 0.20 µM FtsA, summary value): 0.62 a.u.
- Normalized intensity ([1]; AMPPNP, 0.40 µM FtsA, summary value): 0.75 a.u.
- Normalized intensity ([1]; AMPPNP, 0.80 µM FtsA, summary value): 1.00 a.u.
- Normalized intensity ([1]; ATP, 0.10 µM FtsA, replicate 1): 0.20 a.u.
- Normalized intensity ([1]; ATP, 0.10 µM FtsA, replicate 2): 0.48 a.u.
- Normalized intensity ([1]; ATP, 0.10 µM FtsA, summary value): 0.37 a.u.
- Normalized intensity ([1]; ATP, 0.20 µM FtsA, summary value): 0.67 a.u.
- Normalized intensity ([1]; ATP, 0.40 µM FtsA, summary value): 0.82 a.u.
- Normalized intensity ([1]; ATP, 0.80 µM FtsA, summary value): 0.95 a.u.
- Normalized intensity ([1]; ATPgS, 0.20 µM FtsA, summary value): 0.20 a.u.
- Normalized intensity ([1]; ATPgS, 0.40 µM FtsA, summary value): 0.21 a.u.
- Normalized intensity ([1]; ATPgS, 0.80 µM FtsA, summary value): 0.65 a.u.
- Mean of QCM-D experiments ([2]; 0.01 µM): 1.23
- Mean of QCM-D experiments ([2]; 0.05 µM): 3.38
- Mean of QCM-D experiments ([2]; 0.10 µM): 7.01
- amount of membrane-bound protein saturated at [2]: 0.8 µM
- Kd [2]: 210 ± 10 nM
- FRET efficiency (FtsA self-interaction; + SUVs, 0.05 µM, mean, n = 3): 1.50%
- FRET efficiency (FtsA self-interaction; + SUVs, 0.05 µM, replicate 1): 1.29%
- FRET efficiency (FtsA self-interaction; + SUVs, 0.05 µM, replicate 2): 1.96%
- FRET efficiency (FtsA self-interaction; + SUVs, 0.05 µM, replicate 3): 1.25%
- FRET efficiency (FtsA self-interaction; + SUVs, 0.10 µM, mean, n = 3): 6.63%
- FRET efficiency (FtsA self-interaction; + SUVs, 0.10 µM, replicate 1): 6.56%
- FRET efficiency (FtsA self-interaction; + SUVs, 0.10 µM, replicate 2): 7.39%
- FRET efficiency (FtsA self-interaction; + SUVs, 0.10 µM, replicate 3): 5.94%
- FRET efficiency (FtsA self-interaction; + SUVs, 0.20 µM, mean, n = 3): 7.59%
- FRET efficiency (FtsA self-interaction; + SUVs, 0.20 µM, replicate 1): 8.16%
- FRET efficiency (FtsA self-interaction; + SUVs, 0.20 µM, replicate 2): 7.75%
- FRET efficiency (FtsA self-interaction; + SUVs, 0.20 µM, replicate 3): 6.87%
- FRET efficiency (FtsA self-interaction; without SUVs, 0.05 µM, mean, n = 3): 0.0114%
- FRET efficiency (FtsA self-interaction; without SUVs, 0.05 µM, replicate 1): 0.0544%
- FRET efficiency (FtsA self-interaction; without SUVs, 0.05 µM, replicate 2): -1.50%
- FRET efficiency (FtsA self-interaction; without SUVs, 0.05 µM, replicate 3): 1.48%
- FRET efficiency (FtsA self-interaction; without SUVs, 0.10 µM, mean, n = 3): 1.67%
- FRET efficiency (FtsA self-interaction; without SUVs, 0.10 µM, replicate 1): 1.71%
- FRET efficiency (FtsA self-interaction; without SUVs, 0.10 µM, replicate 2): 2.21%
- FRET efficiency (FtsA self-interaction; without SUVs, 0.10 µM, replicate 3): 1.09%
- FRET efficiency (FtsA self-interaction; without SUVs, 0.20 µM, mean, n = 3): 2.87%
- FRET efficiency (FtsA self-interaction; without SUVs, 0.20 µM, replicate 1): 2.43%
- FRET efficiency (FtsA self-interaction; without SUVs, 0.20 µM, replicate 2): 2.56%
- FRET efficiency (FtsA self-interaction; without SUVs, 0.20 µM, replicate 3): 3.62%
- FRET in solution (FtsA self-interaction; cuvette, no lipid): could not detect any significant FRET signal
- FRET with lipid vesicles (FtsA self-interaction; cuvette, presence of lipid vesicles): FRET increased significantly

B1: FtsA R286W (protein)
chain: MIKATDRKLVVGLEIGTAKVAALVGEVLPDGMVNIIGVGSCPSRGMDKGGVNDLESVVKCVQRAIDQAELMADCQISSVYLALSGKHISCQNEIGMVPISEEEVTQEDVENVVHTAKSVRVRDEHRVLHVIPQEYAIDYQEGIKNPVGLSGVRMQAKVHLITCHNDMAKNIVKAVERCGLKVDQLIFAGLASSYSVLTEDERELGVCVVDIGGGTMDIAVYTGGALRHTKVIPYAGNVVTSDIAYAFGTPPSDAEAIKVRHGCALGSIVGKDESVEVPSVGGRPPWSLQRQTLAEVIEPRYTELLNLVNEEILQLQEKLRQQGVKHHLAAGIVLTGGAAQIEGLAACAQRVFHTQVRIGAPLNITGLTDYAQEPYYSTAVGLLHYGKESHLNGEAEVEKRVTASVGSWIKRLNSWLRKEF
modifications: Cy3 or Cy5 at the N-terminus in the labelled form (labelled CLEPTGG peptide conjugated to the 5xGly tag by sortagging); unlabelled protein also used; left off: TwinStrep-SUMO, N-terminal, cleaved | 5x
- FtsZ turnover compared to the wild-type protein (FtsZ filaments): slightly decreased
- Mean of QCM-D experiments ([2]; 0.01 µM): 0.81
- Mean of QCM-D experiments ([2]; 0.05 µM): 1.79
- Mean of QCM-D experiments ([2]; 0.10 µM): 3.36
- amount of membrane-bound protein saturated at [2]: 0.8 µM
- Kd [2]: 320 ± 50 nM
